Results published in article PMC2903571, “Sterol carrier protein-x gene and effects of sterol carrier protein-2 inhibitors on lipid uptake in Manduca sexta” (BMC Physiology, 2010).
Counter-ions that a name gives are not always drawn.

Experiments:
AeSCP-2 [1] = target: T1, AeSCP-2 (Aedes aegypti, UniProt Q86PR3); test: biochemical
T1 sequence (Q86PR3 1-110): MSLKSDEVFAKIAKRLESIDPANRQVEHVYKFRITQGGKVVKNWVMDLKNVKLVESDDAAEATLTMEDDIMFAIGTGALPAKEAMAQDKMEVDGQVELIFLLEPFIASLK
Procedure: (§5) The inhibitory effect of SCPI on cholesterol binding to MsSCP-2 was measured using NBD-cholesterol competition assays. In a 50 μl reaction solution in each well of a 96-well plate purified recombinant MsSCP-2 (5 μM) was incubated with NBD-cholesterol (1.25 μM) in the presence of increased concentrations of a SCPI (0-12.5 μM) in 10 mM KHPO4 buffer (pH 7.4) for 5 min. The fluorescence intensity (excitation/emission = 470/530) of NBD-cholesterol was measured. The background control was NBD-cholesterol alone in 10 mM KHPO4 buffer (pH 7.4). A separate set of tests was performed using NBD-cholesterol with increasing concentrations of a SCPI to assess whether a SCPI interfered with NBD-cholesterol fluorescence. If a SCPI interfered with NBD-cholesterol fluorescence, the background control was NBD-cholesterol along with the SCPI. The net change in NBD-cholesterol fluorescence intensity was calculated by subtracting the fluorescence of the background control from the NBD-cholesterol-MsSCP-2 complex in the absence or presence of an inhibitor. The data were plotted with the relative NBD-cholesterol fluorescent intensity (bound NBD-cholesterol) as the y-axis and the molarities of the inhibitor as the x-axis. Bacterial GST protein and Aedes aegypti SCP-2 protein (AeSCP-2) were used as a negative control and a positive control for the assays, respectively.

[2] = system: M. sexta Day 3 4th instar larvae; test: [3H]-cholesterol uptake (label/chase) in larvae fed SCPIs; assay type: in vivo, Manduca sexta; details: for suppression of cholesterol storage (stored [3H]-cholesterol) in the fat body: within 6 hours of treatment, versus controls; for accumulation of [3H]-cholesterol in the fat body versus controls: within 6 hours post feeding; for [3H]-cholesterol levels in the feces, higher than in the controls: within the 6 hour period; for amount of labeled cholesterol in the hemolymph: 2 to 6 hours post feeding; for hemolymph [3H]-cholesterol levels versus control: all post feeding time points; for total amount of [3H]-cholesterol in the midgut tissue versus controls: over the observed time period (2-6 h), two-way ANOVA
Procedure: (§1) Collected tissue samples were stored at -80°C.
(§2) Student t-test was used in cases where a pair of treatments was compared to determine the significance of the differences.

Manduca sexta GV1 cells = system: Manduca sexta GV1 cells; parameters: method as in PMID 15627652; details: 10 μM; cited from earlier work
[3] = system: M. sexta Day 3 4th instar larvae; test: [3H]-palmitic acid uptake (label/chase) in larvae fed SCPIs; assay type: in vivo, Manduca sexta; details: midgut tissue, 2-6 h post feeding
Procedure: as §1, §2

MsSCP-2 [4] = target: T2, MsSCP-2 (Manduca sexta, UniProt D8VD27); test: biochemical
T2 sequence (D8VD27 entry or part of it): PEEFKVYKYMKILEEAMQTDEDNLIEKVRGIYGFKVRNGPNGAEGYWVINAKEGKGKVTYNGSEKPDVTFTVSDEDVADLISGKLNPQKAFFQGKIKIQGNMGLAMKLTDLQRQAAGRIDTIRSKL
Procedure: as §5

Day 3 4th instar larvae = test: Dietary uptake of NBD-cholesterol in larvae fed SCPIs; details: mean ± S.D.
Procedure: NBD-cholesterol and the SCPI were added into the diet and fed to Day 3 4th instar larvae (12 insects (4 insects/time)/group) as described for [^3H]-cholesterol. Total lipids were extracted from tissue samples as described for [^3H]-cholesterol. Dried lipids were re-dissolved in 50 μl methanol and the NBD fluorescent was measured (470/530 nm = excitation/emission). RFU = the relative fluorescent unit (sample FU - blank FU).
**Data were analyzed using two-way ANOVA.

[5] = parameters: method as in PMID 11566796; details: cited from earlier work
[6] = parameters: method as in PMID 6833881; details: room temperature; cited from earlier work
Manduca sexta larvae = system: Manduca sexta larvae; parameters: method as in PMID 15627652; details: cited from earlier work
GST = test: NBD-cholesterol binding assay, GST (negative control); parameters: species or system bacterial; details: negative control protein
Procedure: (§3) MsSCP-2 binding affinity for NBD-cholesterol, an analog of cholesterol, was determined using NBD-cholesterol binding assays. A 1 ml sample of 10 μM recombinant MsSCP-2 was diluted with 10 mM KHPO4 buffer (pH 7.4) to various concentrations (1 nM~10 μM). Twenty-five microliters of each concentration of MsSCP-2 solution and the control (without MsSCP-2) were thoroughly mixed with 25 μl of NBD-cholesterol solution (1 μM in KHPO4 buffer, pH 7.4) and allowed to equilibrate for 3 minutes to permit stable measurement of the fluorescence signal. NBD-cholesterol fluorescence was excited at 470 nm, and emission was recorded at 530 nm using a fluorescence microplate reader (Model: GeminiXPS, Molecular Devices). Data were fit using a simple, single binding site, non-linear regression model in GraphPad PRISM® software version 4.0 (GraphPad Software Inc., San Diego, CA) using the equation: [drawing 1]
(§4) Where, Kd is the binding affinity, X is the NBD-cholesterol concentration (μM), Y is the total binding (fluorescent intensity unit), and Bmax is the maximum specific binding to be fit. AeSCP-2 and GST were used as a positive control and a negative control, respectively. NBD-cholesterol binding assays for the controls were performed the same as described above for recombinant MsSCP-2.

AeSCP-2 [7] = target: T1, AeSCP-2; test: NBD-cholesterol binding assay, AeSCP-2 (positive control); details: NBD-cholesterol 1 μM, one site binding non-linear regression; read-out: binding affinity (Kd) of AeSCP-2 to NBD-cholesterol
Procedure: as §3, §4

MsSCP-2 [8] = target: T2, MsSCP-2; test: NBD-cholesterol binding assay, recombinant MsSCP-2; details: NBD-cholesterol 1 μM, MsSCP-2 1 nM~10 μM, one site binding non-linear regression; read-out: binding affinity (Kd) of MsSCP-2 to NBD-cholesterol
Procedure: as §3, §4

For `CC(=O)Nc1ccc(Nc2nc(-c3ccc(Cl)c(Cl)c3)cs2)cc1` [SCPI-1, N-4-{[4-(3,4-dichlorophenyl)-1,3-thiazol-2-yl]amino}phenyl)aetamide hydrobromide], the EC50 (AeSCP-2 [1]) was 900 nM, the “amount of [3H]-cholesterol in the midgut” value [2] was 555098.9 DMP/mg protein and the “suppression of cholesterol storage (stored [3H]-cholesterol) in the fat body” value ([2]; fat body) was 37%. For the same compound, the “accumulation of [3H]-cholesterol in the fat body versus controls” value ([2]; fat body) was “significantly lower”, the “[3H]-cholesterol levels in the feces, higher than in the controls” value [2] was 265.84% and the “amount of labeled cholesterol in the hemolymph” value ([2]; SCPI at LD50 dosage in diet) was 28087.6 DPM/mg protein. The “hemolymph [3H]-cholesterol levels versus control” value [2] was “significantly lower”, the “total [3H]-cholesterol in the midgut tissue compared with the control group” value ([2]; midgut, 2 hour time point, SCPI at LD50 dosage in diet) was “slightly lower” and the “total amount of [3H]-cholesterol in the midgut tissue versus controls” value ([2]; midgut) was “significantly lower”. For the same compound, the “suppression of cholesterol uptake” value (Manduca sexta GV1 cells) was 15%, the “[3H]-palmatic acid uptake/levels in the midgut” value [3] was “suppressed” and the EC50 (MsSCP-2 [4]) was 2200 nM. The “NBD-cholesterol, fat body, 2 hour” value (Day 3 4th instar larvae) was 8.01±2.84 RFU/mg proteins, the “NBD-cholesterol, fat body, 4 hour” value (Day 3 4th instar larvae) was 4.18±1.06 RFU/mg proteins and the “NBD-cholesterol, fat body, 6 hour” value (Day 3 4th instar larvae) was 3.75±1.10 RFU/mg proteins. The “NBD-cholesterol, hemolymph, 2 hour” value (Day 3 4th instar larvae) was 8.62±3.62 RFU/mg proteins, the “NBD-cholesterol, hemolymph, 4 hour” value (Day 3 4th instar larvae) was 7.04±1.37 RFU/mg proteins and the “NBD-cholesterol, hemolymph, 6 hour” value (Day 3 4th instar larvae) was 5.63±1.62 RFU/mg proteins. For the same compound, the “NBD-cholesterol, midgut, 2 hour” value (Day 3 4th instar larvae) was 22.77±3.02 RFU/mg proteins, the “NBD-cholesterol, midgut, 4 hour” value (Day 3 4th instar larvae) was 22.61±4.57 RFU/mg proteins and the “NBD-cholesterol, midgut, 6 hour” value (Day 3 4th instar larvae) was 17.78±6.43 RFU/mg proteins.
In the case of `CC(C)CCC[C@@H](C)[C@H]1CC[C@H]2[C@@H]3CC=C4C[C@@H](O)CC[C@]4(C)[C@H]3CC[C@]12C` [Cholesterol, cholesterol], the “flip-flop rate (t1/2) within the lipid bilayer” value [5] is given as 1 to 2 min and the solubility in water [6] is given as ~ 10 nM.
With `COc1cccc(-n2sc3c(c2=S)-c2cc(Cl)ccc2NC3(C)C)c1` [SCPI-2, 8-chloro-2-(3-methoxyphenyl)-4,4-dimethyl-4,5-dihydroisothiazol[5,4-c]quinoline-1(2H)-thione] the EC50 (AeSCP-2 [1]) was 800 nM, the “amount of [3H]-cholesterol in the midgut” value [2] was 367836.9 DMP/mg protein and the “less stored [3H]-cholesterol in the fat body than for the SCPI-1-treatment” value ([2]; fat body, 6 hours post feeding) was 56%. For the same compound, the “suppression of cholesterol storage (stored [3H]-cholesterol) in the fat body” value ([2]; fat body) was 69%, the “accumulation of [3H]-cholesterol in the fat body versus controls” value ([2]; fat body) was “significantly lower” and the “[3H]-cholesterol levels in the feces, higher than in the controls” value [2] was 369.02%. For the same compound, the “amount of labeled cholesterol in the hemolymph” value ([2]; SCPI at LD50 dosage in diet) was 29564.4 DPM/mg protein, the “hemolymph [3H]-cholesterol levels versus control” value [2] was “significantly lower” and the “greater reduction in [3H]-cholesterol uptake/transport than the SCPI-1-treatment” value ([2]; midgut tissue) was 46%. For the same compound, the “[3H]-cholesterol in the midgut tissue, % of the controls” value ([2]; midgut, 2 hour post feeding, SCPI at LD50 dosage in diet) was 43.18%, the “total amount of [3H]-cholesterol in the midgut tissue versus controls” value ([2]; midgut) was “significantly lower” and the “suppression of cholesterol uptake” value (Manduca sexta GV1 cells) was 22%. For the same compound, the “[3H]-palmatic acid uptake/levels in the midgut” value [3] was “suppressed”, the EC50 (MsSCP-2 [4]) was 900 nM and the “NBD-cholesterol, fat body, 2 hour” value (Day 3 4th instar larvae) was 4.20±0.57 RFU/mg proteins. For the same compound, the “NBD-cholesterol, fat body, 4 hour” value (Day 3 4th instar larvae) was 7.74±3.56 RFU/mg proteins, the “NBD-cholesterol, fat body, 6 hour” value (Day 3 4th instar larvae) was 9.05±4.09 RFU/mg proteins and the “NBD-cholesterol, hemolymph, 2 hour” value (Day 3 4th instar larvae) was 4.93±1.26 RFU/mg proteins. For the same compound, the “NBD-cholesterol, hemolymph, 4 hour” value (Day 3 4th instar larvae) was 4.58±1.47 RFU/mg proteins, the “NBD-cholesterol, hemolymph, 6 hour” value (Day 3 4th instar larvae) was 3.89±0.98 RFU/mg proteins and the “NBD-cholesterol, midgut, 2 hour” value (Day 3 4th instar larvae) was 21.39±2.77 RFU/mg proteins. The “NBD-cholesterol, midgut, 4 hour” value (Day 3 4th instar larvae) was 21.45±3.55 RFU/mg proteins, the “NBD-cholesterol, midgut, 6 hour” value (Day 3 4th instar larvae) was 17.43±6.46 RFU/mg proteins and the “lethality to Manduca larvae” value (Manduca sexta larvae) was “more lethal than SCPI-1”.
For `C[C@H](CNc1ccc([N+](=O)[O-])c2nonc12)[C@H]1CC[C@H]2[C@@H]3CC=C4C[C@@H](O)CC[C@]4(C)[C@H]3CC[C@]12C` [NBD-cholesterol, 22-(N-(7-nitrobenz-2-oxa-1,3-diazol-4-yl)amino)-23,24-bisnor-5-cholen-3β-ol], the “binding of GST to NBD-cholesterol” value (GST) was “little binding”, the Kd (AeSCP-2 [7]) was 820 nM and the Kd (MsSCP-2 [8]) was 1860 nM.
